Test results taken from patent publication US6835382B2, “Ii peptide therapeutics to enhance antigen presentation” (University of Massachusetts, priority 1996, dated 2004).

T1: murine E^d MHC class II allele (Mus musculus, UniProt P01904+P01915)
T1 sequence (P01904 26-255): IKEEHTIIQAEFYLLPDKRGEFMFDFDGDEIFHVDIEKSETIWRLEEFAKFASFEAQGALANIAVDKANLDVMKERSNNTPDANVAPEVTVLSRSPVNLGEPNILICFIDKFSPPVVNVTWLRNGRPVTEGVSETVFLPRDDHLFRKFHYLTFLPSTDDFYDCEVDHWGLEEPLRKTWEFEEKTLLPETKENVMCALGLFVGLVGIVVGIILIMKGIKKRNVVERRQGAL
T1 sequence (P01915 27-264 limits assumed): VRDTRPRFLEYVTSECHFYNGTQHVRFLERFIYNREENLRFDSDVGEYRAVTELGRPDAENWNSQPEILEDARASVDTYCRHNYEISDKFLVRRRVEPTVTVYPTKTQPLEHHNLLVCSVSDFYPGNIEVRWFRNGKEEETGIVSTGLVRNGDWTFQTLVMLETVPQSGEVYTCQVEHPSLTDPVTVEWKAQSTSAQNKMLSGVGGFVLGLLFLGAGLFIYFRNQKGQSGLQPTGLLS

B1: AE405 (peptide)
peptide: Ac-LPKSAKPV-NH2
B2: AE100 (peptide)
peptide: YRMKLPKPPKPVSKMR
B3: AE107 (peptide)
peptide: YRMKLPKSAKPV

Legend:
HLA-DR1 molecules [1] = assay: release of biotin-labeled hMBP(90-102) from HLA-DR1 without unlabeled antigenic peptide (assay I); type: binding, human; settings: for release of biotin-labeled hMBP(90-102) from HLA-DR1 without second unlabeled antigenic peptide, in words: Table 36 (compounds tested at 64 μM); for Relative Release: Table 36, AE101 series compound 64 μM, fraction of o.d. of positive control (PBS only = 1.0; negative control = 0.0)
HLA-DR1 molecules [2] = target: T2, HLA-DR1 molecules (Homo sapiens, UniProt P01903+P01911, A100R/D57E/F55L/F60I/F76Y/I96L/L162R/M171V/P40L/Q125E/R42F/V115G/Y59C); assay: binding of biotin-labeled hMBP(90-102) to "empty" HLA-DR1 (assay IV); settings: Table 39; AE101 series compound 64 μM; biotin-labeled hMBP(90-102) 50 μM, 37° C., 1 h; no enhancement = 1
T2 construct: The HLA-DR alpha gene was truncated after Asn^192 to remove transmembranal and cytoplasmic regions from the protein product; A gene coding for the HLA-DR1 beta chain was truncated after position Lys^198, again to delete the transmembranal region; made in house; host or cells: insect cell line printed as HS / H5 (Invitrogen), co-infected with two baculoviruses; concentrated culture supernatant captured on 12CA5 antibody

HLA-DR1 molecules [3] = assay: exchange of biotinylated hMBP(90-102) into antigenic peptide-loaded HLA-DR1 (assay III); type: binding, human; settings: Table 38; HLA-DR1 preloaded with unlabeled hMBP(90-102) 50 μM; exchange with biotin-labeled hMBP(90-102) 50 μM, 37° C., 1 h; fraction of positive control o.d.; no enhancement = 0.08
[4] = target: T1, murine E^d MHC class II allele; assay: simultaneous assay, E^d allele (A20 APC, G28.C9 T hybridoma, HEL106-116; HT-2 [3H]TdR readout); type: cell-based; parameters: The A20 and CH27 B cell lymphoma lines express H-2^d and H-2^k alleles, respectively; endogenous in cells; host or cells: A20 B cell lymphoma (mitomycin C-treated or paraformaldehyde-fixed)
Procedure: (§1) Examples 1-4 (Tables 1-18) will be briefly considered in order to establish the concept of tolerance discussed above. These examples describe experimental results observed in the so-called “simultaneous” assay. In the simultaneous assay four principle components are cultured together for a 24 hour period. The components of this culture, which are added simultaneously, are: (a) an antigenic peptide characterized by the ability to bind specifically into the antigenic peptide binding groove of an MHC class II molecule, (b) mitomycin C-treated, MHC class II-positive antigen presenting cells (APC) bearing the MHC class II allele required for binding of the specific antigenic peptide, and presentation of the specific antigenic peptide to the antigenic peptide-specific T cell hybridoma, (c) an effector compound of the present invention, and (d) an MHC class II allele-restricted T cell hybridoma specific for the antigenic peptide and the MHC class II allele restricting its presentation. Following incubation of this primary culture, an aliquot of its supernatant is transferred into a second culture well for incubation with an interleukin-dependent lymphoblastoid cell line. The degree of stimulation of that second, indicator cell by the interleukins which had been released from the activated T cell hybridoma in the primary culture is measured by quantitating tritiated thymidine deoxyribose {[^3H]TdR} uptake into the DNA of the HT-2 indicator cells of that second culture.
(§2) In the “simultaneous assay” the four components of the assay are cultured together for a 24 h period. The components of this primary culture, added at the same time or simultaneously, are: (a) the antigenic peptide, (b) mitomycin C-treated, MHC class II-positive antigen presenting cells (APC) with the MHC class II allele required for binding of the specific antigenic peptide and its presentation to the antigenic peptide-specific T cell hybridoma, (c) an AE101 series effector peptide, and (d) MHC class II allele-restricted T cell hybridoma specific for the antigenic peptide and the MHC class II allele restricting its presentation. At the end of the incubation of this primary culture, an aliquot of its supernatant is transferred into a second culture well for incubation with an interleukin-dependent lymphoblastoid cell line. The degree of stimulation of that second, indicator cell by the interleukins which had been released from the activated T cell hybridoma in the primary culture is measured by quantitating tritiated thymidine deoxyribose {[^3H]TdR} uptake into the DNA of the HT-2 indicator cells of that second culture.
(§3) For these various assays, the following antigenic peptides were used: HEL11-25, hen egg lysozyme 11-25, AMKRHGLDNYRGYSL(A^d) (SEQ ID NO:5); HEL46-61, hen egg lysozyme 46-61, NTDGSTDYGILQINSR(Ak) (SEQ ID NO:6); HEL106-116, hen egg lysozyme 106-116, NAWVAWRNRCK (E^d) (SEQ ID NO:7); PGCC81-104, pigeon cytochrome c 81-104, […] (Ek) (SEQ ID NO:8), and THMCC82-103, tobacco hornworm moth cytochrome c 82-103, […] (Ek) (SEQ ID NO:9). AE101 series peptides were obtained from commercial sources. In general, the purity and composition of each peptide was confirmed by HPLC separation and mass spectrometry. The native protein antigens were HEL, hen egg lysozyme, and PGCC, pigeon cytochrome C. They were obtained from commercial sources.
(§4) For the experiments of these Examples, several T cell hybridomas, which are specific for certain antigenic peptides, were used. The TPc9.1 T hybridoma is specific for pigeon cytochrome C 81-104 peptide presented on the murine class II MHC allele E^k. The TPc9.1 hybridoma responds heteroclitically to tobacco hornworm moth cytochrome c 82-103 on E^k. The 3A9 T hybridoma is specific for hen egg lysozyme 46-61 on A^k. The 9.30.B2 hybridoma is specific for hen egg lysozyme 11-25 on A^d, and the G28.C9 hybridoma is specific for hen egg lysozyme 106-116 on E^d. […]

[5] = tested on: murine E^k MHC class II allele; assay: simultaneous assay, E^k allele (CH27 APC, TPc9.1 T hybridoma, THMCC82-103 or PGCC81-104); type: cell-based
Procedure: as §1, §2, §3, §4

[6] = target: T1, murine E^d MHC class II allele; assay: AE101 series peptide prepulse assay, E^d allele; type: cell-based; settings: Table 35; AE101 series peptide prepulse 64 μM; antigenic peptide 0.3 μM; supernatant dilution 1:4
Procedure: (§5) Table 35: Activities of multiple substitution analogs of AE235, targeting the E^k and E^d allele, in an AE101 series peptide prepulse assay. In this assay the concentration of AE101 series peptides used during the prepulse was 64 μM. The concentrations of antigenic peptides were 0.3 μM for Ed and 0.4 μM for E^k. The supernatant dilutions taken into the HT-2 cell assay was 1:4 for E and 1:2 for E^k. The AE381 peptide is a head-to-tail cyclization: the amino terminal amino group is coupled through an amide linkage to the carboxyl terminal group. The AE 382 peptide is a side-to-tail cyclization: the epsilon amino group of Lys^4 is coupled through an amide linkage to the carboxyl terminal group.
(§6) AE101 series peptide prepulse assays were carried out in the E^d and E^k systems as described for simultaneous competition assays with the following modifications. Fixed APC were first incubated for 6 h at 1×10^6DMEM-5% FCS with 64 μM of each AE101 series peptide or with PBS. The APC were then washed four times with ten volumes of DMEM-5% FCS, and were cocultured with T hybridoma cells and the indicated submaximal doses of antigenic peptides used in the simultaneous competition assays. The baseline T cell response was measured by culturing T hybridoma cells with antigenic peptide and PBS-pretreated APC.

[7] = tested on: murine E^k MHC class II allele; assay: AE101 series peptide prepulse assay, E^k allele; type: cell-based; settings: Table 35; AE101 series peptide prepulse 64 μM; antigenic peptide 0.4 μM; supernatant dilution 1:2
Procedure: as §5, §6

[8] = target: soluble HLA-DR1 (HLA-DR alpha truncated after Asn192 with a C-terminal nine amino acid HA epitope tail; HLA-DR1 beta truncated after Lys198), made in Baculovirus-infected insect cells (human); assay: exchange ELISA: tethered HLA-DR1 preloaded with unlabeled hMBP(90-102) 50 uM, washed; AE peptide plus biotin-hMBP(90-102) 50 uM, 1 h 37 C; biotin bound as fraction of positive control (overnight loading)
[9] = target: soluble HLA-DR1 (HLA-DR alpha truncated after Asn192 with a C-terminal nine amino acid HA epitope tail; HLA-DR1 beta truncated after Lys198), made in Baculovirus-infected insect cells (human); assay: loading ELISA: empty tethered HLA-DR1 with biotin-hMBP(90-102) 50 uM and AE peptide 64 uM, 1 h 37 C; biotin bound read by avidin-HRP
[10] = target: soluble HLA-DR1 (HLA-DR alpha truncated after Asn192 with a C-terminal nine amino acid HA epitope tail; HLA-DR1 beta truncated after Lys198), made in Baculovirus-infected insect cells (human); assay: release ELISA: soluble HLA-DR1 tethered by 12CA5 and preloaded with biotin-hMBP(90-102); AE peptide 64 uM, 1 h 37 C, no unlabeled peptide; biotin still bound read by avidin-HRP (1.0 = PBS control, 0.0 = no DR1; low value = released)

| Molecule | release of biotin-labeled hMBP(90-102) from HLA-DR1 without second unlabeled antigenic peptide, in words (HLA-DR1 molecules [1]) | Relative Release (HLA-DR1 molecules [1]) | Relative Enhancement (HLA-DR1 molecules [2]) | Relative Binding (HLA-DR1 molecules [3]) | Relative Binding (of biotin-hMBP(90-102) to HLA-DR1) (fraction of positive control o.d.) [8] | Relative Enhancement (of biotin-hMBP(90-102) binding to empty HLA-DR1) (relative to no AE peptide = 1) [9] | Relative Release (fraction of positive control o.d.) [10] | also measured |
| --- | --- | --- | --- | --- | --- | --- | --- | --- |
| AE401: The N-terminal portion of AE100 (LRMKLPKPP) | retained capacity to release | 0.16 | 4.29 | 0.45 |  |  |  |  |
| AE403 (MKLPKPPKPV) |  | 0.64 | 0.47 | 0.40 |  |  |  |  |
| AE405: comprising residue positions 5 through 12 of AE101 (LPKSAKPV) | sufficient to release antigenic peptide | 0.11 | 0.43 | 0.57 |  |  |  |  |
| YRMKLPKSAKPV [AE107] | released | −0.07 | 2.59 | 1.04 |  |  |  | release of hMBP(90-102) from HLA-DR1 (HLA-DR1 molecules [1]; AE peptide at 125 nM, additional experiments): completely release; Times Baseline Response, E^d ([4]; Table 1, AE peptide 16 μM (second value), 0.4 μM HEL106-116, supernatant 1:4): 4.8; Times Baseline Response, E^d ([4]; Table 1, AE peptide 64 μM (first value), 0.4 μM HEL106-116, supernatant 1:4): 21.7; Times Baseline Response, E^k ([5]; Table 1, AE peptide 16 μM (second value), 0.075 μM THMCC82-103, supernatant 1:2): 0.8; Times Baseline Response, E^k ([5]; Table 1, AE peptide 64 μM (first value), 0.075 μM THMCC82-103, supernatant 1:2): 1.0 |
| Ac-LRMKlpk-NH2 [AE172] |  |  |  |  |  |  |  | T cell response relative to baseline with PBS-pretreated APC (NONE = 1.0), E^d [6]: 1.1; Times Baseline Response, E^d ([4]; Table 12, AE peptide 1 μM (fourth value), supernatant 1:2): 2; Times Baseline Response, E^d ([4]; Table 12, AE peptide 4 μM (third value), supernatant 1:2): 2; Times Baseline Response, E^d ([4]; Table 12, AE peptide 16 μM (second value), supernatant 1:2): 7; Times Baseline Response, E^d ([4]; Table 12, AE peptide 64 μM (first value), supernatant 1:2): 54; Times Baseline Response, E^k ([5]; Table 12, AE peptide 1 μM (fourth value), supernatant 1:4): 2.8; Times Baseline Response, E^k ([5]; Table 12, AE peptide 4 μM (third value), supernatant 1:4): 4.2; Times Baseline Response, E^k ([5]; Table 12, AE peptide 16 μM (second value), supernatant 1:4): 21.1; Times Baseline Response, E^k ([5]; Table 12, AE peptide 64 μM (first value), supernatant 1:4): 46.2; T cell response relative to baseline with PBS-pretreated APC (NONE = 1.0), E^k [7]: 2.1 |
| AE402 (LRMKLPKPPKPV) |  | 0.65 | 0.33 | −0.03 |  |  |  |  |
| AE100 (YRMKLPKPPKPVSKMR) |  | 0.37 | 3.44 | 0.31 |  |  |  |  |
| B1 |  |  |  |  | 0.57 | 0.43 | 0.11 |  |
| B2 |  |  |  |  | 0.31 | 3.44 | 0.37 |  |
| B3 |  |  |  |  | 1.04 | 2.59 | -0.07 |  |
